These are literature values, as cited in patent publication US8242056B2, “Agriculture actives delivery composition comprising boron and persulfate ion-crosslinked polyvinyl alcohol microcapsules and method of use thereof” (Appleton Papers Inc., priority 2008, dated 2012).

As usually defined, the pKa is the negative logarithm of the acid dissociation constant.

Read-outs that look alike come from different tables or passages of the source.

For data set [1] the following is noted: half ionized and half un-ionized at its pKa.

As to `COc1cc(OC)nc(NC(=O)NS(=O)(=O)c2ncccc2C(=O)N(C)C)n1` [nicosulfuron], the Water solubility is given as 360 ppm (pH5), 12,200 ppm (pH 6.9) and 29,200 ppm (pH 8.8). Further, the pKa in data set [1] is listed as 4.3.
